From publication PMC7114147 (Antiviral Research, 2013) come the findings set out here.

Structures are written as SMILES. Where “and” joins values, the source holds several entries; their conditions need not be identical. Equal entries are not always repeated. Where two headings read alike, the source gives them in different places. Bounds are passed on as bounds.

One data set deals with endosomal pH. It counts as cell-based.
The next data set relates to A/H3N2 (A/HK/7/87). The experiment in a line: microbe, parasite or virus in culture. It counts as cell-based.
For data set [1], the system named is influenza virus A/PR/8/34. It counts as cell-based.
In the next data set the test system is A/H1N1 (A/PR/8/34). The experiment in a line: microbe, parasite or virus in culture. It counts as cell-based, influenza A virus. The note with it: read-out: Antiviral EC50 A/H1N1 (A/PR/8/34).
The next data set has as its system MDCK cells. The note with it: dog.
The subject of another data set is A/FM/1/47 (A/H1N1). The experiment in a line: microbe, parasite or virus in culture. It counts as cell-based. Particulars: Influenza A virus, H1N1, MDCK, read-out: Antiviral activity (EC50) A/FM/1/47.
The next data set relates to A/Ned/378/05 (A/H1N1). The experiment in a line: microbe, parasite or virus in culture. The note with it: Influenza A virus, H1N1, MDCK, read-out: Antiviral activity (EC50) A/Ned/378/05. It counts as cell-based.
The next data set has as its system A/Ishikawa/7/82 (A/H3N2). The experiment in a line: microbe, parasite or virus in culture. Particulars: Influenza A virus, read-out: Antiviral activity (EC50) A/Ishikawa/7/82. It counts as cell-based.
A short description of another data set: in vitro. Particulars: dog, Cytotoxicity CC50.
A further data set concerns A/Victoria/3/75 (A/H3N2). Kind of data set: microbe, parasite or virus in culture. The note with it: Influenza A virus, H3N2, read-out: EC50 A/Victoria/3/75. It counts as cell-based.
The next data set has as its target A/M2 wt channel (Influenza A virus, UniProt P0DOF5). The experiment in a line: biochemical. The note with it: pH 5.5, read-out: Activity against A/M2 wt channel, Inhibition at 100 μM (%).
[2] abbreviates: Influenza A virus, H3N2, MDCK, read-out: Antiviral EC50 A/H3N2 (A/HK/7/87).
The mark [3] stands for this setting: Influenza A virus, H3N2, MDCK, read-out: Antiviral activity (EC50) A/HK/7/87.
The mark [4] stands for this setting: Influenza A virus, H1N1|PR/8, MDCK.

Sequence of A/M2 wt channel (P0DOF5 whole entry, looked up): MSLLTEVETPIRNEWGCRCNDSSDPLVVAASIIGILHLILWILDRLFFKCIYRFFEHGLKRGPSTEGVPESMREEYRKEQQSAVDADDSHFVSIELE

On to `NC12CC3CC(CC(C3)C1)C2` [Amantadine, amantadine], for which the “Effect on acridine orange staining pattern” value in the data set with endosomal pH (500 μM) was “neither of the polycyclic amines tested”. Moreover, the EC50 in the data set with A/H3N2 (A/HK/7/87) (setting [2]) is 3.4 µM; in the data set on A/H3N2 (A/HK/7/87) (setting [3]) it was 3.4 ± 1.7 µM; in the data set on A/H1N1 (A/PR/8/34) (setting [4]), 53 µM; with A/FM/1/47 (A/H1N1) it was 5.1 ± 2.4 µM; with A/Ned/378/05 (A/H1N1), 2 µM; in the data set with A/Ishikawa/7/82 (A/H3N2) it was 11 ± 8 µM. For the same molecule, in data set [1], the “EC99 (2-log10 reduction in virus yield)” value is 179 μM and 179 ± 53 μM. In the data set with MDCK cells, the “Cytotoxicity (MCC)” value stood at 500 µM.
Regarding `C1=CC2C3C4C5C=CC4C24CNCC54C13` [Compound 3, 3-azahexacyclo[7.6.0.0^1,5.0^5,12.0^6,10.0^11,15]pentadeca-7,13-diene], the EC50 with A/H3N2 (A/HK/7/87) (setting [2]) is 16 µM; in the data set with A/H3N2 (A/HK/7/87) (read-out: Antiviral EC50 A/H3N2 (A/HK/7/87)), 14 µM; in the data set on A/H1N1 (A/PR/8/34) (setting [4]), 14 µM; in the data set with A/H1N1 (A/PR/8/34), 16 µM; in the data set with A/Victoria/3/75 (A/H3N2) it was greater than 100 µM. In “in vitro”, this molecule registered a CC50 greater than 100 µM.
Consider `CCC(CC)O[C@@H]1C=C(C(=O)O)C[C@H](N)[C@H]1NC(C)=O` [Oseltamivir carboxylate], for which the EC50 in the data set with A/H3N2 (A/HK/7/87) (setting [3]) was determined as 29 ± 5 µM; in the data set with A/FM/1/47 (A/H1N1), 16 ± 2 µM; with A/Ned/378/05 (A/H1N1) it was 1.5 ± 0.8 µM; in the data set on A/Ishikawa/7/82 (A/H3N2), 3 ± 1 µM. In the data set with MDCK cells, the “Cytotoxicity (MCC)” value is greater than 100 µM.
As for `NC(=O)c1ncn([C@@H]2O[C@H](CO)[C@@H](O)[C@H]2O)n1` [Ribavirin], the EC50 came out at 8.6 ± 0.4 µM in the data set on A/H3N2 (A/HK/7/87) (setting [3]), 10 ± 1 µM in the data set with A/FM/1/47 (A/H1N1), 7.6 ± 1 µM in the data set with A/Ned/378/05 (A/H1N1) and 8.8 ± 0.3 µM in the data set on A/Ishikawa/7/82 (A/H3N2). In addition, in data set [1], the “EC99 (2-log10 reduction in virus yield)” value came out at 11 ± 1 μM. For the same molecule, the “Cytotoxicity (MCC)” value in the data set with MDCK cells is greater than 100 µM.
As for `CC(N)C12CC3CC(CC(C3)C1)C2` (centres unmarked) [Rimantadine, rimantadine], the EC50 with A/H3N2 (A/HK/7/87) (setting [2]) was 0.17 µM; with A/H3N2 (A/HK/7/87) (setting [3]) it was 0.17 ± 0.08 µM; in the data set with A/H1N1 (A/PR/8/34) (setting [4]) it was 4.6 µM; in the data set on A/FM/1/47 (A/H1N1), 1.9 ± 1.1 µM; in the data set on A/Ned/378/05 (A/H1N1) it was 0.5 ± 0.22 µM; in the data set on A/Ishikawa/7/82 (A/H3N2), 0.45 ± 0.15 µM. Besides, the “EC99 (2-log10 reduction in virus yield)” value in data set [1] is 48 μM and 48 ± 5 μM. Also, the inhibition at 100 µM on A/M2 wt channel came out at 91.4 ± 0.8%. Also, the “Cytotoxicity (MCC)” value in the data set with MDCK cells was greater than 100 µM. The “Cytotoxicity MCC (minimum cytotoxic concentration)” value in the data set with MDCK cells was 500 µM. This molecule also returned a CC50 in “in vitro” of 230 µM.
With `CC(=O)N[C@H]1[C@H]([C@H](O)[C@H](O)CO)OC(C(=O)O)=C[C@@H]1N=C(N)N` [Zanamivir], the EC50 was found to be 1.2 ± 0.9 µM in the data set with A/H3N2 (A/HK/7/87) (setting [3]), 5 ± 1.6 µM in the data set on A/FM/1/47 (A/H1N1), 1.7 ± 0.5 µM in the data set with A/Ned/378/05 (A/H1N1) and 8.7 ± 3.8 µM with A/Ishikawa/7/82 (A/H3N2). The “Cytotoxicity (MCC)” value in the data set on MDCK cells was greater than 100 µM.
With `CO/C1=C\C(C)=C\[C@@H](C)[C@@H](O)[C@@H](C)C/C(C)=C/C=C/[C@H](OC)[C@@H]([C@@H](C)[C@@H](O)[C@H](C)[C@@]2(O)C[C@@H](O)[C@H](C)[C@@H](C(C)C)O2)OC1=O` [bafilomycin A1], in the data set on endosomal pH, the “Effect on acridine orange lysosomal red fluorescence” value is given as “completely inhibited”.
Same read-out and setting: next, `CCN(CC)CCCC(C)Nc1ccnc2cc(Cl)ccc12` (centres unmarked) [chloroquine]: “a decrease in lysosomal pH and a shift to yellow fluorescence”.
